From patent US8691875B2, “Solid forms of tacedinaline” (Broad Institute, Inc., priority 2011, dated 2014)
≈ marks a conversion by molar mass, not a printed value. Entries after “also recorded” stand apart in the source; their conditions may differ. Where two headings read alike, the source gives them in different places.

Key:
[1] = Accelerated stability studies, 40° C. and 75% relative humidity, XRPD; assay type: physicochemical
Description: Accelerated stability studies were performed on samples of crystalline tacedinaline Forms A, B, C, and a mixture of Forms B and D, under conditions of 40° C. and 75% relative humidity. For the studies on Form A, samples were taken at 8 days, 15 days, one month, 10 weeks, and 8 months. For the studies on Forms B, C, and a mixture of Forms B and D, samples were taken at 2, 4, 6, 8, and 10 weeks.

[2] = Solubility study of crystalline forms in water (slurry, UV); assay type: physicochemical; details: for Solubility: slurry stirred 24 hours at ambient temperature (23° C.), UV
Description: Analysis of the relative solubilities of crystalline tacedinaline Forms A, B, and D was performed as follows.
The starting material was Form B. The only peak in the spectrum, at approximately 267 nm, was used. The UV parameters were: scan range: 190-800 nm; 480 nm/min; 1 cm cuvette.
Each sample was placed in water to give a slurry. The slurries were stirred at ambient temperature for 24 hours. The temperature in the laboratory was monitored and found to be steady at 23° C. After 24 hours, the vials containing the slurries were centrifuged for about 5 minutes. The mother liquors were decanted and filtered through 0.2 micron filters, then diluted appropriately and analyzed by UV. Solids were dried under dry air purges and analyzed by XRPD.

[3] = Competitive slurry experiment / relative thermodynamic stability; assay type: physicochemical; details: for relative thermodynamic stability, rank order: from Examples 10A, 11 and 12; for thermodynamic stability relative to other forms (in words): slurry experiments (THF overnight; acetone 7 days), Examples 10A, 11, 12
Description: To a mixture of 161.3 mg of crystalline tacedinaline Forms B and D, was added 2 mL of acetone. The resulting slurry was stirred at ambient temperature for 7 days and filtered to give white solid.
A slurry containing 25.8 mg tacedinaline Form A, 25.8 mg of a mixture of tacedinaline Forms B and D, a few milligrams of tacedinaline Form B, and 0.5 mL of tetrahydrofuran (THF) was stirred overnight and filtered to give 38.6 mg of a white solid. The white solid was analyzed by XRPD and determined to be tacedinaline Form A.

[4] = Thermal stability relative to Form C; assay type: physicochemical
Description: As used herein, the term “DSC” refers to differential scanning calorimetry. Unless otherwise noted, DSC data disclosed herein were obtained using a TA Instruments 2920 instrument. Samples were prepared in crimped aluminum pans and kept under a flow of nitrogen during analysis. The heating rate was 10° C./minute.
As used herein, the term “TGA” refers to thermogravimetric analysis. Unless otherwise noted, TGA data disclosed herein were obtained using TA Instruments 2050 instrument. Samples were kept under a flow of nitrogen during analysis. The heating rate was 10° C./minute.

[5] = Bioavailability / pharmacokinetics study, single IV and PO administration; assay type: in vivo, Sprague-Dawley rats; details: for AUC(0-inf) / AUC(0-t) / Cmax / clearance / half-life / MRT inf / Vd / bioavailability / Tmax: Sprague-Dawley, rat, plasma; for AUC(0-inf) / AUC(0-t) / Cmax / clearance / half-life / MRT inf / Vd / bioavailability: 1 mg/kg; for MRT inf: read-out: MRT(0-∞); for Vd: read-out: Vz
Description: A study was performed to determine the pharmacokinetics parameters and bioavailability of Tacedinaline Form A in Sprague-Dawley Rats, following a single intravenous injection (IV) and oral administration (PO). Formulation: IV formulation: The test article was dissolved in 10% DMSO/45% PEG400/45% Saline to yield a final concentration of 0.5 mg/ml for intravenous injection. PO formulation: The test article was suspended in 0.5% methylcellulose in water to yield a final concentration of 0.2 mg/ml for oral administration. Collection Intervals: Three rats in each group were used for blood collection at each time point: Groups 1 and 2: Pre-dose and post-dose (5 min, 15 min, 30 min, 1 hour, 2 hours, 4 hours, 6 hours, 8 hours, and 24 hours). Analysis Procedure: The PK blood samples were centrifuged at approximately 8000 rpm for 6 minutes at 2-8° C. and the resulting plasma separated and stored frozen at approximately −80° C. (following separation, the plasma may be initially placed on ice prior to being stored in the −80° C. freezer). All the plasma samples were labeled with detailed information such as study number, animal number, matrix, time points of collection and date of collection. Pharmacokinetics Analysis: A standard set of parameters including Area Under the Curve (AUC(0-t) and AUC(0-∞)), elimination half-life (T1/2), maximum plasma concentration (Cmax), time to reach maximum plasma concentration (Tmax), clearance (CL), and volume of distribution (VZ) was calculated using noncompartmental analysis modules in FDA certified pharmacokinetic program WinNonlin Professional v6.1 (Pharsight, USA). Further, the bioavailability was estimated using the following formula: […]

For `CC(=O)Nc1ccc(C(=O)Nc2ccccc2N)cc1` [B + D, 4-acetamido-N-(2-aminophenyl)benzamide], the “stability of the solid form (in words)” value ([1]; listed as mixture of Form B and Form D) was “more stable than Form C”, the “XRPD Result” value ([1]; pull time 2 weeks) was “B + D” and the “XRPD Result” value ([1]; pull time 4 weeks) was “B + D”. For the same compound, the “XRPD Result” value ([1]; pull time 6 weeks) was “B + D”, the “XRPD Result” value ([1]; pull time 8 weeks) was “B + D” and the Solubility [2] was 20.8 µg/mL.
For `CC(=O)Nc1ccc(C(=O)Nc2ccccc2N)cc1` [Form A, 4-(acetylamino)-N-(2-aminophenyl)benzamide], the “relative thermodynamic stability, rank order” value [3] was “A>D>B”, the “thermodynamic stability relative to other forms (in words)” value [3] was “more thermodynamically stable, relative to tacedinaline Forms B, and D; also recorded: more thermodynamically stable under certain conditions relative to Forms B and D” and the “thermal stability relative to Form C (in words)” value [4] was “improved thermal stability relative to tacedinaline Form C”. The CL_F ([5]; PO 1 mg/kg, Animal No. 1) was 4.5 mL/min/kg, the Vz_F ([5]; PO 1 mg/kg, Animal No. 1) was 1.47 L/kg and the CL_F ([5]; PO 1 mg/kg, Animal No. 2) was 4.17 mL/min/kg. For the same compound, the Vz_F ([5]; PO 1 mg/kg, Animal No. 2) was 1.04 L/kg, the CL_F ([5]; PO 1 mg/kg, Mean) was 4.33 mL/min/kg and the Vz_F ([5]; PO 1 mg/kg, Mean) was 1.25 L/kg. It also gave an AUC(0-inf) ([5]; iv, IV 1 mg/kg, Animal No. 1) of 3100 ng·h/mL, an AUC(0-t) ([5]; iv, IV 1 mg/kg, Animal No. 1) of 3090 ng·h/mL and a Cmax ([5]; iv, IV 1 mg/kg, Animal No. 1) of 799 ng/mL. The clearance ([5]; iv, IV 1 mg/kg, Animal No. 1) was 5.33 mL/min/kg, the half-life ([5]; iv, IV 1 mg/kg, Animal No. 1) was 2.81 h and the MRT inf ([5]; iv, IV 1 mg/kg, Animal No. 1) was 3.46 h. For the same compound, the Vd ([5]; iv, IV 1 mg/kg, Animal No. 1) was 1.31 L/kg, the AUC(0-inf) ([5]; iv, IV 1 mg/kg, Animal No. 2) was 3010 ng·h/mL and the AUC(0-t) ([5]; iv, IV 1 mg/kg, Animal No. 2) was 3010 ng·h/mL. The Cmax ([5]; iv, IV 1 mg/kg, Animal No. 2) was 715 ng/mL, the clearance ([5]; iv, IV 1 mg/kg, Animal No. 2) was 5.5 mL/min/kg and the half-life ([5]; iv, IV 1 mg/kg, Animal No. 2) was 2.82 h. The MRT inf ([5]; iv, IV 1 mg/kg, Animal No. 2) was 3.57 h, the Vd ([5]; iv, IV 1 mg/kg, Animal No. 2) was 1.35 L/kg and the AUC(0-inf) ([5]; iv, IV 1 mg/kg, Mean) was 3060 ng·h/mL. For the same compound, the AUC(0-t) ([5]; iv, IV 1 mg/kg, Mean) was 3050 ng·h/mL, the Cmax ([5]; iv, IV 1 mg/kg, Mean) was 757 ng/mL and the clearance ([5]; iv, IV 1 mg/kg, Mean) was 5.5 mL/min/kg. The half-life ([5]; iv, IV 1 mg/kg, Mean) was 2.81 h, the MRT inf ([5]; iv, IV 1 mg/kg, Mean) was 3.52 h and the Vd ([5]; iv, IV 1 mg/kg, Mean) was 1.33 L/kg. The bioavailability ([5]; oral, rats, read-out: bioavailability) was 100%, the AUC(0-inf) ([5]; po, PO 1 mg/kg, Animal No. 1) was 3730 ng·h/mL and the AUC(0-t) ([5]; po, PO 1 mg/kg, Animal No. 1) was 3700 ng·h/mL. For the same compound, the Cmax ([5]; po, PO 1 mg/kg, Animal No. 1) was 687 ng/mL, the half-life ([5]; po, PO 1 mg/kg, Animal No. 1) was 3.81 h and the bioavailability ([5]; po, PO 1 mg/kg, Animal No. 1, read-out: F (Bioavailability)) was 122%. It also gave an MRT inf ([5]; po, PO 1 mg/kg, Animal No. 1) of 4.6 h, an AUC(0-inf) ([5]; po, PO 1 mg/kg, Animal No. 2) of 4030 ng·h/mL and an AUC(0-t) ([5]; po, PO 1 mg/kg, Animal No. 2) of 4020 ng·h/mL. The Cmax ([5]; po, PO 1 mg/kg, Animal No. 2) was 781 ng/mL, the half-life ([5]; po, PO 1 mg/kg, Animal No. 2) was 2.9 h and the bioavailability ([5]; po, PO 1 mg/kg, Animal No. 2, read-out: F (Bioavailability)) was 132%. For the same compound, the MRT inf ([5]; po, PO 1 mg/kg, Animal No. 2) was 4.06 h, the AUC(0-inf) ([5]; po, PO 1 mg/kg, Mean) was 3880 ng·h/mL and the AUC(0-t) ([5]; po, PO 1 mg/kg, Mean) was 3860 ng·h/mL. It also gave a Cmax ([5]; po, PO 1 mg/kg, Mean) of 734 ng/mL, a half-life ([5]; po, PO 1 mg/kg, Mean) of 3.35 h and a bioavailability ([5]; po, PO 1 mg/kg, Mean, read-out: F (Bioavailability)) of 127%. It also gave an MRT inf ([5]; po, PO 1 mg/kg, Mean) of 4.33 h, a Tmax ([5]; IV 1 mg/kg, Animal No. 1) of 0.5 h and a Tmax ([5]; PO 1 mg/kg, Animal No. 1) of 2 h. For the same compound, the “stability of the solid form (in words)” value [1] was “stable, as no conversion was seen” and the Solubility [2] was 17.6 µg/mL (≈ 65.4 µM).
In the case of `CC(=O)Nc1ccc(C(=O)Nc2ccccc2N)cc1` [Form B, 4-(acetylamino)-N-(2-aminophenyl)benzamide], the “relative thermodynamic stability, rank order” value [3] is reported as “A>D>B”, the “thermal stability relative to Form C (in words)” value [4] is reported as “improved thermal stability relative to tacedinaline Form C” and the “stability of the solid form (in words)” value [1] is reported as “more stable than Form C”. The “solubility in water compared with other forms (in words)” value [2] was “superior to that of Forms A and D” and the Solubility [2] was 42.6 µg/mL (≈ 158 µM).
In the case of `CC(=O)Nc1ccc(C(=O)Nc2ccccc2N)cc1` [Form C, 4-(acetylamino)-N-(2-aminophenyl)benzamide, reference compound], the “stability of the solid form (in words)” value [1] is reported as “converted to either Form D, or a mixture of Form D with some amount of Form A present”, the “XRPD Result” value ([1]; pull time 2 weeks) is reported as “D + A” and the “XRPD Result” value ([1]; pull time 6 weeks) is reported as “D + A”. For the same compound, the “XRPD Result” value ([1]; pull time 8 weeks) was “D + A”.
In the case of `CC(=O)Nc1ccc(C(=O)Nc2ccccc2N)cc1` [Form D, 4-(acetylamino)-N-(2-aminophenyl)benzamide], the “relative thermodynamic stability, rank order” value [3] is reported as “A>D>B”, the “thermodynamic stability relative to other forms (in words)” value [3] is reported as “more thermodynamically stable under certain conditions relative to Form B” and the “thermal stability relative to Form C (in words)” value [4] is reported as “improved thermal stability relative to tacedinaline Form C”.
